From ChEMBL document CHEMBL3621090, “Discovery of a novel Kv7 channel opener as a treatment for epilepsy” (Bioorg Med Chem Lett, 2015)

What was measured:
[1] = test system: Plasma; experiment: Unbound plasma concentration in Sprague-Dawley rat at 3 mg/kg, po administered at 60 mins by LC-MS/MS analysis; format: ADME, organism-based; conditions: in vivo, 1 h
[2] = test system: CHO-K1; experiment: Activation of rat Kv7.3/7.5 expressed in CHOK1 cells assessed as increase in current amplitude relative to control; format: cell-based
[3] = test system: Brain; experiment: Fraction unbound in Sprague-Dawley rat brain at 1 mg/kg, po administered at 60 mins by LC-MS/MS analysis; format: ADME, organism-based; conditions: in vivo, 1 h
[4] = test system: Rattus norvegicus; experiment: Anticonvulsant activity in Sprague-Dawley rat assessed as protection against maximal electroshock-induced convulsion at 3 mg/kg, po administered 60 mins prior to application of shock via corneal electrodes relative to control; format: functional
[5] = target: T1, Potassium voltage-gated channel subfamily KQT member 4 (Rattus norvegicus) (UniProt Q9JK96); experiment: Activation of rat Kv7.4 expressed in CHOK1 cells assessed as increase in current amplitude relative to control; format: cell-based; conditions: CHO-K1
T1 sequence (whole entry): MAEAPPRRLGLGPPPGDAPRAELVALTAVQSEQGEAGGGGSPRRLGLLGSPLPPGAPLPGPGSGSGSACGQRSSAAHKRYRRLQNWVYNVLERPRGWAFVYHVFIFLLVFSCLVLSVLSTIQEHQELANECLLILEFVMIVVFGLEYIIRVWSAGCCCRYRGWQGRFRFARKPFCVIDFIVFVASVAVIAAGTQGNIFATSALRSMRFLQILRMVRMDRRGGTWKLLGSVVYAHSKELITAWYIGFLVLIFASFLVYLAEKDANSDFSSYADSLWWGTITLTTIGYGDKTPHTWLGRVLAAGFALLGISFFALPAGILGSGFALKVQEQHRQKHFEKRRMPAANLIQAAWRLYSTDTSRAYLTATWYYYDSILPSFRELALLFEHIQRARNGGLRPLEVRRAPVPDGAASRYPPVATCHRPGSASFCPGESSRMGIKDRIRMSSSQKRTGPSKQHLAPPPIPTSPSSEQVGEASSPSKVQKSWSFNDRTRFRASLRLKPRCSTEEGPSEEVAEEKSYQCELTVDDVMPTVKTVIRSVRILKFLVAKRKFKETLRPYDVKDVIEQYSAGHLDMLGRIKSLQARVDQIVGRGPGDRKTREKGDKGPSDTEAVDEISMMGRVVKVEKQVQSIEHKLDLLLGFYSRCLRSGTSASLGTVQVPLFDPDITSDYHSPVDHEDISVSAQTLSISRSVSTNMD

[6] = test system: Rattus norvegicus; experiment: Anticonvulsant activity in Sprague-Dawley rat assessed as protection against maximal electroshock-induced convulsion at 10 mg/kg, sc administered 30 mins prior to application of shock via corneal electrodes relative to control; format: functional
[7] = Ratio of free drug level in plasma to brain in Sprague-Dawley rat at 30 mg/kg, po administration at 60 mins; format: ADME, organism-based; conditions: in vivo, 1 h
[8] = test system: Plasma; experiment: Unbound plasma concentration in Sprague-Dawley rat at 30 mg/kg, sc administered at 30 mins by LC-MS/MS analysis; format: ADME, organism-based; conditions: in vivo, 0.5 h
[9] = test system: Rattus norvegicus; experiment: Anticonvulsant activity in sc dosed Sprague-Dawley rat assessed as protection against maximal electroshock-induced convulsion administered 30 mins prior to application of shock via corneal electrodes; format: functional, organism-based
[10] = target: Voltage-gated potassium channel KCNQ3/KCNQ5 (Homo sapiens, UniProt O43525+Q9NR82); experiment: Activation of human Kv7.3/7.5 expressed in CHOK1 cells; format: cell-based, CHO-K1
[11] = test system: Plasma; experiment: Unbound plasma concentration in Sprague-Dawley rat at 3 mg/kg, sc administered at 30 mins by LC-MS/MS analysis; format: ADME, organism-based; conditions: in vivo, 0.5 h
[12] = Fraction unbound in rat plasma by equilibrium dialysis method; format: ADME, cell-free
[13] = target: T2, Potassium voltage-gated channel subfamily KQT member 4 (Rattus norvegicus, UniProt Q9JK96); experiment: Activation of rat Kv7.4 expressed in CHOK1 cells; format: cell-based, CHO-K1
T2 sequence (Q9JK96 whole entry): T1 sequence (whole entry)

[14] = Ratio of free drug level in plasma to brain in Sprague-Dawley rat at 10 mg/kg, sc administration at 30 mins; format: ADME, organism-based; conditions: in vivo, 0.5 h
[15] = test system: Rattus norvegicus; experiment: Anticonvulsant activity in Sprague-Dawley rat assessed as protection against maximal electroshock-induced convulsion at 1 mg/kg, sc administered 30 mins prior to application of shock via corneal electrodes relative to control; format: functional
[16] = Ratio of free drug level in plasma to brain in Sprague-Dawley rat at 3 mg/kg, sc administration at 30 mins; format: ADME, organism-based; conditions: in vivo, 0.5 h
[17] = test system: Rattus norvegicus; experiment: Anticonvulsant activity in Sprague-Dawley rat assessed as protection against maximal electroshock-induced convulsion at 30 mg/kg, sc administered 30 mins prior to application of shock via corneal electrodes relative to control; format: functional
[18] = test system: MDCK; experiment: Efflux ratio of permeability from basolateral to apical over apical to basolateral side in MDCK cells transfected with MDR1; format: ADME, cell-based, Canis lupus familiaris; conditions: dog
[19] = Ratio of free drug level in plasma to brain in Sprague-Dawley rat at 30 mg/kg, sc administration at 30 mins; format: ADME, organism-based; conditions: in vivo, 0.5 h
[20] = target: Potassium voltage-gated channel subfamily KQT member 2/member 3 (Rattus norvegicus, UniProt O88943+O88944); experiment: Activation of rat Kv7.2/7.3 expressed in CHOK1 cells; format: cell-based, CHO-K1
[21] = target: Voltage-gated potassium channel, KQT; KCNQ2(Kv7.2)/KCNQ3(Kv7.3) (Homo sapiens) (UniProt O43526+O43525); experiment: (§1) Activation of human Kv7.2/7.3 expressed in CHOK1 cells; format: cell-based; conditions: CHO-K1
[22] = target: Voltage-gated potassium channel, KQT; KCNQ2(Kv7.2)/KCNQ3(Kv7.3) (Homo sapiens, UniProt O43525+O43526); experiment: as §1; format: cell-based, CHO-K1
[23] = test system: Plasma; experiment: Unbound plasma concentration in Sprague-Dawley rat at 1 mg/kg, sc administered at 30 mins by LC-MS/MS analysis; format: ADME, organism-based; conditions: in vivo, 0.5 h

Chain of Voltage-gated potassium channel, KQT; KCNQ2(Kv7.2)/KCNQ3(Kv7.3) (O43526 whole entry): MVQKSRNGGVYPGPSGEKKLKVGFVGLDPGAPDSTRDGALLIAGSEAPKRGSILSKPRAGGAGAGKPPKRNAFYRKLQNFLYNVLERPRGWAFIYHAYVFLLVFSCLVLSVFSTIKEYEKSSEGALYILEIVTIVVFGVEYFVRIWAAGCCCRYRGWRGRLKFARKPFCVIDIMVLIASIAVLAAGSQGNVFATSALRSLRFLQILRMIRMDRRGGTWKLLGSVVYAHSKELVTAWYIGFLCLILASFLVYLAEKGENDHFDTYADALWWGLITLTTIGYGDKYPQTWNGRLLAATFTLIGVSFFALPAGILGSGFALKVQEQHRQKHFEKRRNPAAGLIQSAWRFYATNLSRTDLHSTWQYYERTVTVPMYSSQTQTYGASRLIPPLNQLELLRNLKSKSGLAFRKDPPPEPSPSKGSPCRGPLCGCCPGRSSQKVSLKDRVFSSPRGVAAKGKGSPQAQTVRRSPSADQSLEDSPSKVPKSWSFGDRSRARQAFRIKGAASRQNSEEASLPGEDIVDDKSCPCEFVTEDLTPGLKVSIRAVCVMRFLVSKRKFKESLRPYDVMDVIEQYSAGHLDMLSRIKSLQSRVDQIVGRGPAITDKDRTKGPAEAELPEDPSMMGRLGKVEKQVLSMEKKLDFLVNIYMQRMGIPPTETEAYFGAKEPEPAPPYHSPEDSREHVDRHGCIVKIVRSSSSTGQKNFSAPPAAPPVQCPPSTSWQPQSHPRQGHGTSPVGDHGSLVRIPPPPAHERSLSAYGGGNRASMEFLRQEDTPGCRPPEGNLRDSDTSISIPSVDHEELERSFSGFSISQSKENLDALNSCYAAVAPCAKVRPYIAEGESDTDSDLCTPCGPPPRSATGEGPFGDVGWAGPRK
Chain of Voltage-gated potassium channel, KQT; KCNQ2(Kv7.2)/KCNQ3(Kv7.3) (O43525 whole entry): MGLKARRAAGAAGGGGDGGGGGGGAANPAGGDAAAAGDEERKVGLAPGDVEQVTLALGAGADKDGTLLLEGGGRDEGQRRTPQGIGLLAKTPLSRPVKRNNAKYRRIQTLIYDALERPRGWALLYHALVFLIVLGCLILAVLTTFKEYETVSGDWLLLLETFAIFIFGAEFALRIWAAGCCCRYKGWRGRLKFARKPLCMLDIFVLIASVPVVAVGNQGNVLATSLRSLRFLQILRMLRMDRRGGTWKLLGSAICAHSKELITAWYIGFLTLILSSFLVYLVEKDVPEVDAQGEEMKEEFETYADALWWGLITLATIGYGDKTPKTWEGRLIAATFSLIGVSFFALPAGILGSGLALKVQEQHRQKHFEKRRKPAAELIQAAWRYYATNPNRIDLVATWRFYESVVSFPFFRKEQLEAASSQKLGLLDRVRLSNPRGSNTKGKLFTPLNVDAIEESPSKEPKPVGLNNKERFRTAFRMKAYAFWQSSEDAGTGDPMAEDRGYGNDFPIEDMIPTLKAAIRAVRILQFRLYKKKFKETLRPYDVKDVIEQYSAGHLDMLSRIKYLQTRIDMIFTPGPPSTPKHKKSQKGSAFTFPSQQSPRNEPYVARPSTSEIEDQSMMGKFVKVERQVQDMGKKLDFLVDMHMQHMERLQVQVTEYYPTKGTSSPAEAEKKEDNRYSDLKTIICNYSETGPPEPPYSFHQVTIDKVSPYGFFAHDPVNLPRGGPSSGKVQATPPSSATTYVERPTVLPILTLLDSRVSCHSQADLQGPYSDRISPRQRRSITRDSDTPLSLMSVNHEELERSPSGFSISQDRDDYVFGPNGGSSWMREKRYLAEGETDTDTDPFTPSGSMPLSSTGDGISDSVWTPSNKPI
Chain of Voltage-gated potassium channel KCNQ3/KCNQ5 (O43525 whole entry): as above
Chain of Voltage-gated potassium channel KCNQ3/KCNQ5 (Q9NR82 whole entry): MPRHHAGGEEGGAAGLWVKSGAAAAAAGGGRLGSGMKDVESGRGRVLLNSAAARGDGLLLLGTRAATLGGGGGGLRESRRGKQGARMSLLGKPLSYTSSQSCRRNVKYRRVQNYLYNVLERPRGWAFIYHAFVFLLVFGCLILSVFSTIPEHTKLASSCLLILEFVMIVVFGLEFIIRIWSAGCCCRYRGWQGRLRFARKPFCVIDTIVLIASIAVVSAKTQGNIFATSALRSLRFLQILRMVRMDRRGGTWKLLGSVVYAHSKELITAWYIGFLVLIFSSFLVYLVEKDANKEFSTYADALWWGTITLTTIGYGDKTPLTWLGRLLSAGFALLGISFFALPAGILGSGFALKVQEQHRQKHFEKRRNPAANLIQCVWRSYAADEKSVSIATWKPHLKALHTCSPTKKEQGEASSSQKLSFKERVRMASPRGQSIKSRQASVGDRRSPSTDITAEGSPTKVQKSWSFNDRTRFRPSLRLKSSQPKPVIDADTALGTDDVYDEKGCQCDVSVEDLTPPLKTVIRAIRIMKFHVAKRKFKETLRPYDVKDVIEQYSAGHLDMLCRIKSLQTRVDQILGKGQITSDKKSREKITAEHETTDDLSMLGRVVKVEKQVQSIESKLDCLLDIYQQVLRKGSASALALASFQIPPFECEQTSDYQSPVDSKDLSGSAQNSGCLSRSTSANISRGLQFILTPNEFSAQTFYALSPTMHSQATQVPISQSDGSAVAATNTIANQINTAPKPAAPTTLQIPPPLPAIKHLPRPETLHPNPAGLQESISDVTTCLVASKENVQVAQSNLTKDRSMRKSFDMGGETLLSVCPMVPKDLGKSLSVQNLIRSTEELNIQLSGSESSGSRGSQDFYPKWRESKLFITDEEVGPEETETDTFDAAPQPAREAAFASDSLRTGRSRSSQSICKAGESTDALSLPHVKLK
Chain of Potassium voltage-gated channel subfamily KQT member 2/member 3 (O88943 whole entry): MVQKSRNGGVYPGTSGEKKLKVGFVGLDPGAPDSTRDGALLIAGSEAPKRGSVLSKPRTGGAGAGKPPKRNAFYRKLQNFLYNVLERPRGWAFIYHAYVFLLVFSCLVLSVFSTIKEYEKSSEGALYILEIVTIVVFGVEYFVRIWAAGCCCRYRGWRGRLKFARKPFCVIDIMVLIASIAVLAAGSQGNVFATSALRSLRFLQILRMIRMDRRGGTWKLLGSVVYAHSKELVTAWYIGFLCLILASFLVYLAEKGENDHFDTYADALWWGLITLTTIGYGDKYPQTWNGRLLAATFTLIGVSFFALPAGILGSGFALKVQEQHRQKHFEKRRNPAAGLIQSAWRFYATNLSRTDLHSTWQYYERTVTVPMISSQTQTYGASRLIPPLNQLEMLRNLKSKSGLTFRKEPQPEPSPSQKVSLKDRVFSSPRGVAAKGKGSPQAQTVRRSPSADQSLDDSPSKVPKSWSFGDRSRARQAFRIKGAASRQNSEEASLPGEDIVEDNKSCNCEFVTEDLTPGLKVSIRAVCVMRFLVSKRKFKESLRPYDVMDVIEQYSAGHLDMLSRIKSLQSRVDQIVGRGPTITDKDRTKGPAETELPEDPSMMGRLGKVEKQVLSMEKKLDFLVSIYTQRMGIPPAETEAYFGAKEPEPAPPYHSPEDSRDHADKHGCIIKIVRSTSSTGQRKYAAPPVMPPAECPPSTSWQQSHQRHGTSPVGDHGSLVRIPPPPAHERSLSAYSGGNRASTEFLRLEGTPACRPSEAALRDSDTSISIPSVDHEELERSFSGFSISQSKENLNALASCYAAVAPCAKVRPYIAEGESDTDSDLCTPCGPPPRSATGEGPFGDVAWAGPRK
Chain of Potassium voltage-gated channel subfamily KQT member 2/member 3 (O88944 whole entry): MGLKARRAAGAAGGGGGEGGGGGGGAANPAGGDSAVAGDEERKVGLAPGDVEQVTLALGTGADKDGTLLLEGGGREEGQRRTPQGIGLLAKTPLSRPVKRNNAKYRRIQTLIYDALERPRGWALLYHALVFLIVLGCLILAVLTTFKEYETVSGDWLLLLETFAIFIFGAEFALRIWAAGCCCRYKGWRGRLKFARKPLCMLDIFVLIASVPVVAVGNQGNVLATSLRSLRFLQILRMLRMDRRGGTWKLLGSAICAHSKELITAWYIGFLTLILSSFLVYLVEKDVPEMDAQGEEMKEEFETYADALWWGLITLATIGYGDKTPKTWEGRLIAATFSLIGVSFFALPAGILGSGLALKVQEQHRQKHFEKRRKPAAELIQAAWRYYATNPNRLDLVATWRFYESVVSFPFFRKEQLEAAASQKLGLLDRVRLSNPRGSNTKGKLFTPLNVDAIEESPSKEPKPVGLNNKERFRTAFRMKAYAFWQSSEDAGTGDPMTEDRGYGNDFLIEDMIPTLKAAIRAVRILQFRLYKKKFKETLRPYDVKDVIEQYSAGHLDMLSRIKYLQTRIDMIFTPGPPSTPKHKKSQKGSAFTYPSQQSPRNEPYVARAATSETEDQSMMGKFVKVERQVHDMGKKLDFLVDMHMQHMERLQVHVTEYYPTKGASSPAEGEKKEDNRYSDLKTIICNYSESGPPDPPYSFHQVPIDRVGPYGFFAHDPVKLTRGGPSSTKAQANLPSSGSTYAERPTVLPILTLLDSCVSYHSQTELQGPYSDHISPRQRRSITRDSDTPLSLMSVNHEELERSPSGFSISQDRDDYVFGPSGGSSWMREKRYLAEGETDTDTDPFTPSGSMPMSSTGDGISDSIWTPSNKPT

COc1nc(N2CCC(OC)CC2)nc(OC)c1NC(=O)CC(C)(C)C
Cp(f) [1]: 109 nM | Activity [2]: 207% | Drug uptake(free) [3]: 6 nM | Activity [4]: 88% | Activity [5]: 161% | Activity [6]: 100% | Ratio [7]: 0.48 | Cp(f) [8]: 305 nM | Activity [9]: Dose-dependent effect | EC50 [10]: 588 nM | Cp(f) [11]: 151 nM | fraction unbound [12]: 0.184 | EC50 [13]: 376 nM | Ratio [14]: 0.59 | Activity [15]: 43% | Ratio [16]: 0.59 | Activity [17]: 100% | Ratio [18]: 1.25 | Ratio [19]: 0.55 | EC50 [20]: 294 nM | max activation [21]: 147% | EC50 [22]: 334 nM | Cp(f) [23]: 58 nM
